{"source": "patent US9771336B2", "about": "“Tetrazole based corrosion inhibitors” (Ecolab USA Inc., priority 2013, dated 2017)", "key": {"[1]": {"experiment": "Copper corrosion rate with and without bleach in a cooling water environment"}, "[2]": {"experiment": "Mild steel corrosion rate (interaction with Cu2+)", "conditions": "FIG. 12; compared with no HDTZ", "from_the_text": "Tetrazoles disclosed herein have a positive effect on mild steel corrosion. […] The proposed mechanism of action is suspected to be indirect: the likely interpretation is that HDTZ inactivates Cu^2+ in solution preventing the occurrence of galvanic cells on the coupon surface (lower corrosion rate), which could grow with time (stabilization of the corrosion rate)."}, "[3]": {"conditions": "3 ppm inhibitor, synthetic cooling water, 38° C., three hours"}, "[4]": {"experiment": "Solubility (turbidity) of 2% solutions at various pH", "format": "physicochemical", "conditions": "2% solution in RO water"}, "[5]": {"experiment": "Pimephales promelas 96-Hour Definitive Toxicity Test", "format": "in vivo", "conditions": "Pimephales promelas, in vivo, other: waterborne exposure in test solution; composition of BDTZ", "protocol": "(§1) A composition of the invention including a BDTZ tetrazole component was evaluated using the Pimephales promelas 96-Hour Definitive Toxicity Test. Pimephales promelas used to initiate this test were obtained from in-house cultures and were 1 to 14 days old at test initiation. Test organisms were maintained in 100 percent control water (reconstituted moderately hard water) prior to test initiation. The 96-Hour Definitive Test was conducted using 300 to 500 milliliter (mL) disposable polypropylene containers containing 250 ml of control water or appropriate test solution. Ten test organisms were randomly introduced into each test chamber with two replicate chambers per treatment. Each Pimephales promelas test chamber was fed 0.1 mL of a concentrated suspension of less than 24-hour old live brine shrimp nauplii (Artemia sp.) several hours prior to the 48-hour testing period.\n(§2) At the 48-hour testing period, test solutions were renewed by replacing approximately 90 percent of the old solution with fresh control water or appropriate test solution. Prior to renewal of test solutions, uneaten and dead brine shrimp, along with other debris, were removed from the bottom of the test chambers. Organism survival was determined daily by enumerating live Pimephales promelas in each test chamber. Survival was defined as any body movement after gentle prodding.\n(§3) The test was conducted at a temperature of 20±1° C. under fluorescent lighting with a photoperiod of 16 hours light and 8 hours dark. Water quality measurements were performed on all control and test solutions prior to test initiation and on selected treatments daily thereafter.\n(§4) Following termination of the 96-Hour Definitive Test, No Observed Effect Concentration (NOEC) and a 96-hour LC50 with corresponding 95 percent confidence interval were calculated, where possible. The NOEC value was determined using the statistically appropriate method. The LC50 value estimate was determined by using one of the following statistical methods: graphical, Spearman-Karber, Trimmed Spearman-Karber, or Probit. The method selected for reporting test results was determined by the characteristics of the data; that is, the presence or absence of 0 and 100 percent mortality and the number of concentrations in which mortalities between 0 and 100 percent occurred. All statistical analyses were performed using the CETIS™ Version 1.8.5.4 software program.\n(§5) The reference toxicant, sodium chloride, was used to monitor the sensitivity of the test organisms and the precision of the testing procedure. Acute reference toxicant tests are performed at least monthly and the resulting LC50 values are plotted to determine if the results are within prescribed limits."}, "Pimephales promelas": {"test_system": "Pimephales promelas", "experiment": "Pimephales promelas 96-Hour Definitive Toxicity Test", "format": "in vivo", "conditions": "96-hour test", "protocol": "as §1, §2, §3, §4, §5"}, "[6]": {"conditions": "average copper corrosion rate, inhibitor concentration 5 ppm, with bleach"}, "[7]": {"conditions": "average copper corrosion rate, inhibitor concentration 5 ppm, without bleach"}}, "note": "Like-named read-outs stand apart in the source and are kept apart here."}
{"compound": "C(CCc1nnn[nH]1)CCc1nnn[nH]1", "note": "[PeDTZ, 1,5-di(1H-tetrazol-5-yl)pentane]", "values": [{"measurement": "Corrosion Rate (mpy) with Bleach (1 FRC)", "setting": "[1]", "value": 0.145, "unit": "mpy"}, {"measurement": "Corrosion Rate (mpy) without Bleach", "setting": "[1]", "value": 0.0012, "unit": "mpy"}]}
{"compound": "Cc1cc2nn[nH]c2cc1Cl", "note": "[CITT, 5-methyl-6-chloro-1H-benzotriazole, reference compound]", "values": [{"measurement": "Corrosion Rate (mpy) with Bleach (1 FRC)", "setting": "[1]; [6]", "value": 0.0057, "unit": "mpy"}, {"measurement": "Corrosion Rate (mpy) without Bleach", "setting": "[1]; [7]", "value": 0.0028, "unit": "mpy"}]}
{"compound": "C(CCCc1nnn[nH]1)CCc1nnn[nH]1", "note": "[HDTZ, 1,6-di(1H-tetrazol-5-yl)hexane]", "values": [{"measurement": "effect on mild steel corrosion rate", "setting": "[2]", "value": "stabilize the corrosion rate"}, {"measurement": "Corrosion Rate (mpy) with Bleach (1 FRC)", "setting": "[1]; [6]", "value": 0.0204, "unit": "mpy"}, {"measurement": "Corrosion Rate (mpy) without Bleach", "setting": "[1]; [7]", "value": 0.005, "unit": "mpy"}, {"measurement": "melting point", "value": 183.75, "unit": "°C"}]}
{"compound": "C(CCCc1nnn[nH]1)CCCc1nnn[nH]1", "note": "[HeDTZ, 1,7-di(1H-tetrazol-5-yl)heptane]", "values": [{"measurement": "Corrosion Rate (mpy) with Bleach (1 FRC)", "setting": "[1]; [6]", "value": 0.027, "unit": "mpy"}, {"measurement": "Corrosion Rate (mpy) without Bleach", "setting": "[1]; [7]", "value": 0.009, "unit": "mpy"}, {"measurement": "melting point", "value": 144.19, "unit": "°C"}]}
{"compound": "hydrogenated tolyltriazole [HTT, reference compound]", "values": [{"measurement": "Corrosion Rate (mpy) with Bleach (1 FRC)", "setting": "[1]; [6]", "value": 0.0187, "unit": "mpy"}, {"measurement": "Corrosion Rate (mpy) without Bleach", "setting": "[1]; [7]", "value": 0.0051, "unit": "mpy"}]}
{"compound": "c1ccc2[nH]nnc2c1", "note": "[BZT, 1H-benzotriazole, reference compound]", "values": [{"measurement": "Corrosion Rate (mpy) with Bleach (1 FRC)", "setting": "[1]; [6]", "value": 0.1386, "unit": "mpy"}, {"measurement": "Corrosion Rate (mpy) without Bleach", "setting": "[1]; [7]", "value": 0.0032, "unit": "mpy"}]}
{"compound": "C(CCCCc1nnn[nH]1)CCCc1nnn[nH]1", "note": "[ODTZ, 1,8-di(1H-tetrazol-5-yl)octane]", "values": [{"measurement": "% loss of inhibitor", "setting": "[3]; 1 ppm ActiBrom", "value": 0.0, "unit": "%"}, {"measurement": "% loss of inhibitor", "setting": "[3]; 1 ppm Bleach", "value": 2.6, "unit": "%"}, {"measurement": "% loss of inhibitor", "setting": "[3]; 1 ppm STABREX", "value": 1.6, "unit": "%"}, {"measurement": "% loss of inhibitor", "setting": "[3]; 5 ppm ActiBrom", "value": 1.3, "unit": "%"}, {"measurement": "% loss of inhibitor", "setting": "[3]; 5 ppm Bleach", "value": 2.6, "unit": "%"}, {"measurement": "% loss of inhibitor", "setting": "[3]; 5 ppm STABREX", "value": 2.6, "unit": "%"}, {"measurement": "Corrosion Rate (mpy) with Bleach (1 FRC)", "setting": "[1]", "value": 0.032, "unit": "mpy"}, {"measurement": "Corrosion Rate (mpy) without Bleach", "setting": "[1]", "value": 0.026, "unit": "mpy"}]}
{"compound": "Cc1ccc2[nH]nnc2c1", "note": "[TT, 5-methyl-1H-benzotriazole, reference compound]", "values": [{"measurement": "Corrosion Rate (mpy) with Bleach (1 FRC)", "setting": "[1]; [6]", "value": 0.0995, "unit": "mpy"}, {"measurement": "Corrosion Rate (mpy) without Bleach", "setting": "[1]; [7]", "value": 0.0214, "unit": "mpy"}, {"measurement": "pH above which soluble", "setting": "[4]", "value": "above 11.5"}, {"measurement": "pH to get a clear solution", "setting": "[4]", "value": 12.0}]}
{"compound": "CCCCc1ccc2[nH]nnc2c1", "note": "[BBT, 5-butyl-1H-benzotriazole, reference compound]", "values": [{"measurement": "Corrosion Rate (mpy) with Bleach (1 FRC)", "setting": "[1]; [6]", "value": 0.0189, "unit": "mpy"}, {"measurement": "Corrosion Rate (mpy) without Bleach", "setting": "[1]; [7]", "value": 0.0024, "unit": "mpy"}]}
{"compound": "C(CCc1nnn[nH]1)Cc1nnn[nH]1", "note": "[BDTZ, 1,4-di(1H-tetrazol-5-yl)butane]", "values": [{"measurement": "Corrosion Rate (mpy) with Bleach (1 FRC)", "setting": "[1]; [6]", "value": 0.0841, "unit": "mpy"}, {"measurement": "Corrosion Rate (mpy) without Bleach", "setting": "[1]; [7]", "value": 0.0088, "unit": "mpy"}, {"measurement": "LC50 at 96 h", "setting": "[5]", "value": "> 10000", "unit": "µg/mL"}, {"measurement": "Survival (%)", "setting": "Pimephales promelas; composition of BDTZ, 625 mg/L as nominal", "value": 100, "unit": "%"}, {"measurement": "Survival (%)", "setting": "Pimephales promelas; composition of BDTZ, 1,250 mg/L as nominal", "value": 100, "unit": "%"}, {"measurement": "Survival (%)", "setting": "Pimephales promelas; composition of BDTZ, 2,500 mg/L as nominal", "value": 100, "unit": "%"}, {"measurement": "Survival (%)", "setting": "Pimephales promelas; composition of BDTZ, 5,000 mg/L as nominal", "value": 100, "unit": "%"}, {"measurement": "Survival (%)", "setting": "Pimephales promelas; composition of BDTZ, 10,000 mg/L as nominal", "value": 100, "unit": "%"}, {"measurement": "NOEC", "setting": "Pimephales promelas; composition of BDTZ", "value": "10,000 mg/L"}, {"measurement": "pH above which the solution remained clear", "setting": "[4]; turbidity meter", "value": "> 5.6"}]}
